In patent publication US20260092086A1, “ANTIMICROBIAL LASSO PEPTIDES” (priority 2022, published 2026):
Entries after “also recorded” stand apart in the source; their conditions may differ. Blank lines part the entries; values can stand above or below the compound they belong to. Where a SMILES comes first, the peptide text is derived from it.

Columns and labels:
[1] = system: carboxypeptidase B and carboxypeptidase Y; test: Carboxypeptidase digestion; type: in vitro ADME
Experimental: Carboxypeptidase assays were done in 50 μL of 50 mM sodium acetate, pH 6.0 with 1 unit each of carboxypeptidase B and carboxypeptidase Y. Reactions were incubated overnight at 20° C. for 16 hours and then quenched with 1% formic acid. An aliquot of the reaction was then injected onto LC-MS to compare with an untreated control.

[2] = system: Enterobacter ludwigii MGH216; details: strain MGH216; cited from earlier work
[3] = system: Enterobacter hormaechei BWH39; details: strain BWH39; cited from earlier work
[4] = system: Enterobacter cloacae UCI102; details: strain UCI102; cited from earlier work
[5] = system: Enterobacter asburiae MGH243; details: strain MGH243; cited from earlier work
[6] = system: Enterobacter cloacae MGH3; details: strain MGH3; cited from earlier work
[7] = system: Enterobacter cloacae BIDMC120; details: strain BIDMC120; cited from earlier work
[8] = system: Enterobacter hormaechei UCI35; details: strain UCI35; cited from earlier work
[9] = system: Enterobacter roggenkampii MGH239; details: strain MGH239; cited from earlier work
[10] = system: Enterobacter hormaechei BIDMC87; details: strain BIDMC87; cited from earlier work
[11] = system: Enterobacter kobei MGH178; details: strain MGH178; cited from earlier work
[12] = system: Enterobacter asburiae UCI193; details: strain UCI193; cited from earlier work
Thermolysin = target: T1, Thermolysin (Geobacillus stearothermophilus, UniProt P43133); test: Protease digestion, thermolysin; type: in vitro ADME; details: 50 μM peptide, 30° C., about 1 hour, LC-MS
T1 construct: purchased Sigma-Aldrich
T1 sequence (P43133 236-551): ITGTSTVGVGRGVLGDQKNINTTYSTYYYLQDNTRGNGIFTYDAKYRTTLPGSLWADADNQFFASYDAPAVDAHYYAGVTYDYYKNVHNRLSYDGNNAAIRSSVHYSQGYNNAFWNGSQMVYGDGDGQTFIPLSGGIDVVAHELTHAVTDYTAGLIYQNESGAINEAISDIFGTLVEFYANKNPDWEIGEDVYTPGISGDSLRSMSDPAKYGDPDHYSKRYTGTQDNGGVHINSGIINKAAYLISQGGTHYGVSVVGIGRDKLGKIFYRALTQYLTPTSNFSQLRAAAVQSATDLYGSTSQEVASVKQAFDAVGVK
Experimental: Thermolysin from Geobacillus stearothermophilus (Sigma-Aldrich) was first resuspended in 50 mM Tris, 0.5 mM CaCl2). The enzyme was then added to 50 μM peptide samples at a final concentration of about 0.04 mg/mL in a buffer of 50 mM Tris, 0.5 mM CaCl2), pH 8. The reactions were then allowed to incubate at 30° C. for about 1 hour before quenching with 1% formic acid. An aliquot was then injected onto LC-MS for analysis.

[13] = Stability of variants: threaded-to-unthreaded peptide in supernatant extract by LC-MS; type: physicochemical; details: for Stability Relative to WT: ratio of threaded-to-unthreaded peptide in supernatant extract after purification; for threaded versus unthreaded peptide in supernatant extract (stability against unthreading): heating and carboxypeptidase assays, compared with wild-type
[14] = system: Enterobacter amnigenus ATCC 33072; type: cell-based; details: against Enterobacter amnigenus (FIG. 28, peptides at 10 μM; Y10A FIG. 34)
Experimental: Cloacaenodin was evaluated against several common laboratory strains as well as commercially acquired strains using a spot-on-lawn assay.^45 Strains were streaked out onto LB agar plates and incubated overnight at their recommended temperatures. A single colony was then used to inoculate an overnight culture in 5 mL of LB broth. After shaking at 250 rpm at the recommended temperature for each strain, 50 μL of the overnight culture was used to inoculate 5 mL of LB broth (volume ratio 1:100). These cultures were grown for a few hours until they reached the exponential phase (OD600˜0.4-0.6) before being added to 10 mL of soft M63 agar at a final cell density of 10^7 CFUs/mL, or 10^8 CFUs total in 10 mL. The M63 soft agar was composed of 2 g/L of (NH4)2SO4 (EMD MilliporeSigma), 13.6 g/L of KH2PO4 (Fisher), 40 mg/L of each of the 20 common amino acids, 0.2% glucose (Sigma), 0.00005% w/v thiamine hydrochloride (Sigma), and 0.65% w/v bacteriological-grade agar (Apex Bioresearch). […] Upon solidification, 10 μL of purified cloacaenodin in water at two-fold dilutions were then spotted onto the agar and allowed to dry. The plates were incubated overnight at the strains' recommended temperatures and analyzed the next morning for activity. The MIC is defined as the last dilution where a spot was visible.

[15] = system: Escherichia coli XL-1 Blue; test: Intracellular toxicity: IPTG-induced expression from plasmid lacking cloD; type: cell-based; details: IPTG induction
Experimental: After characterizing the structure and proteolytic resistance of cloacaenodin, cloacaenodin's inhibition of bacterial growth was tested. As a preliminary test of antimicrobial activity, a version of the expression plasmid from which the cloD gene was removed was cloned, so that the lasso peptide could not be exported by the Escherichia coli upon isopropyl β-D-1-thiogalactopyranoside (IPTG)-induced expression.
Cloacaenodin variants were constructed using site-directed mutagenesis. Mutant precursor genes were amplified from the wild-type precursor in pAK2 using mutagenic primers. Following PCR amplification of the mutated precursor gene, the purified PCR product was digested and ligated into pAK2 with the EcoRI and HindIII restriction sites. For the pMP3 plasmid for deletion of the cloD gene, the D gene was first disrupted by digestion of pAK2 with BamHI and NcoI, which removed the entire cloD gene and the C-terminal portion of the cloC gene. The digested plasmid was then ligated with an insert that restored the C-terminal portion of the cloC gene. All mutants were sequence confirmed by Genewiz (now Azenta) before use.

- proteolysis by carboxypeptidase ([1]; pH 6): susceptibility to carboxypeptidase
Compound: CC[C@H](C)[C@@H]1NC(=O)[C@H](CCCNC(=N)N)NC(=O)[C@H](CC(=O)O)NC(=O)[C@H](C(C)C)NC(=O)[C@H](CO)NC(=O)[C@H](Cc2c[nH]cn2)NC(=O)CNC(=O)CC[C@@H](C(=O)N[C@@H](Cc2ccc(O)cc2)C(=O)N[C@@H](Cc2ccccc2)C(=O)NCC(=O)N2CCC[C@H]2C(=O)N2CCC[C@H]2C(=O)NCC(=O)N[C@@H](CC(C)C)C(=O)N2CCC[C@H]2C(=O)NCC(=O)N2CCC[C@H]2C(=O)N[C@H](C(=O)N[C@@H](CC(C)C)C(=O)N[C@@H](Cc2ccccc2)C(=O)N[C@@H](Cc2ccc(O)cc2)C(=O)NCC(=O)O)C(C)C)NC(=O)[C@@H]2CCCN2C1=O [Cloacaenodin S24G] (HELM PEPTIDE1{G.H.S.V.D.R.I.P.E.Y.F.G.P.P.G.L.P.G.P.V.L.F.Y.G}$PEPTIDE1,PEPTIDE1,1:R1-9:R3$$$V2.0; C-terminus assumed; bridges inferred)

Compound: C[C@@H](O)[C@H]1C(=O)N2C(C(=O)O)=C(S[C@@H]3CN[C@H](C(=O)N(C)C)C3)[C@H](C)[C@H]12 [Meropenem]
- Meropenem MIC [2]: ≤0.25 µg/mL
- Meropenem MIC [3]: 2 µg/mL
- Meropenem MIC [4]: 0.063 µg/mL
- Meropenem MIC [5]: 16 µg/mL
- Meropenem MIC [6]: ≥16 µg/mL
- Meropenem MIC [7]: 4 µg/mL
- Meropenem MIC [8]: 4 µg/mL
- Meropenem MIC [9]: 1 µg/mL
- Meropenem MIC [10]: 16 µg/mL
- Meropenem MIC [11]: ≤0.25 µg/mL
- Meropenem MIC [12]: 23 µg/mL

Compound: CC[C@H](C)[C@@H]1NC(=O)[C@H](CCCNC(=N)N)NC(=O)[C@H](CC(=O)O)NC(=O)[C@H](C(C)C)NC(=O)[C@H](CO)NC(=O)[C@H](Cc2c[nH]cn2)NC(=O)CNC(=O)CC[C@@H](C(=O)N[C@@H](Cc2ccc(O)cc2)C(=O)N[C@@H](Cc2ccccc2)C(=O)NCC(=O)N2CCC[C@H]2C(=O)N2CCC[C@H]2C(=O)NCC(=O)N[C@@H](CC(C)C)C(=O)N2CCC[C@H]2C(=O)NCC(=O)N2CCC[C@H]2C(=O)N[C@H](C(=O)N[C@@H](CC(C)C)C(=O)N[C@@H](Cc2ccccc2)C(=O)N[C@@H](Cc2ccc(O)cc2)C(=O)N[C@@H](CO)C(=O)O)C(C)C)NC(=O)[C@@H]2CCCN2C1=O [unthreaded cloacaenodin] (HELM PEPTIDE1{G.H.S.V.D.R.I.P.E.Y.F.G.P.P.G.L.P.G.P.V.L.F.Y.S}$PEPTIDE1,PEPTIDE1,1:R1-9:R3$$$V2.0; C-terminus assumed; bridges inferred)
- proteolysis by thermolysin (Thermolysin): cleavage of the unthreaded peptide both in its linear and ring segments; also recorded: can be cleaved by thermolysin

Compound: GHSVADRIPEYFGPPGLPGPVLFYS [Cloacaenodin 10-membered ring]
- proteolysis by carboxypeptidase ([1]; carboxypeptidase B and Y, pH 6.0, 20° C., 16 hours, LC-MS): susceptible to degradation by carboxypeptidase
- Stability Relative to WT [13]: Less

Compound: GHSVDRIAEYFGPPGLPGPVLFYS [Cloacaenodin P8A, 109]
- threaded versus unthreaded peptide in supernatant extract (stability against unthreading) [13]: a dramatic decrease in the ratio of threaded-to-unthreaded peptide in the extract for a cloacaenodin P8A variant (FIG. 32) was not observed
- Stability Relative to WT [13]: Comparable

Compound: GHSVDRIPEAFGPPGLPGPVLFYS [Cloacaenodin Y10A, 118]
- Bioactivity Relative to WT [14]: Much less
- intracellular toxicity (growth of E. coli on IPTG without CloD) [15]: not toxic intracellularly
- intracellular toxicity (growth of E. coli on IPTG without CloD) ([15]; listed as Y10A): cells could still grow

Compound: GHSVDRIPEYFGPPGLPGPVLFYA [Cloacaenodin S24A, 113]
- Bioactivity Relative to WT [14]: Comparable

Compound: GHSVDRIPEYFGPPGLPGPVLFYC [Cloacaenodin S24C, 117]
- Bioactivity Relative to WT [14]: Less

Compound: GHSVDRIPEYFGPPGLPGPVLFYT [Cloacaenodin S24T, 116]
- Bioactivity Relative to WT [14]: Less

Compound: GHSVDRIPEYFGPPGLPGPVLFYY [Cloacaenodin S24Y, 114]
- Bioactivity Relative to WT [14]: Comparable

Compound: GHSVDRIPEYFGPPGLPGPVLWYS [Cloacaenodin F22W]
- Bioactivity Relative to WT [14]: Comparable
- threaded versus unthreaded peptide in supernatant extract (stability against unthreading) [13]: comparable levels of unthreaded peptide
- Stability Relative to WT [13]: Comparable
